According to PMC6474336, “Cloning and characterization of a tyrosine decarboxylase involved in the biosynthesis of galanthamine in Lycoris aurea” (PeerJ, 2019):

Legend:
LaTYDC1 [1] = assay: HPLC of dopamine formed; format: biochemical, Lycoris aurea; conditions: pyridoxal-5-phosphate, 50 mM Tris-HCl pH 8.0, 37 °C; GST fusion
Description: HPLC of dopamine formed on LaTYDC1

LaTYDC1 [2] = assay: HPLC of tyramine formed; format: biochemical, Lycoris aurea; conditions: pyridoxal-5-phosphate, 50 mM Tris-HCl pH 8.0, 37 °C; GST fusion; Table 1 labels this row 'Tyramine' and prints error ± 0.12

Row | SMILES | Km (LaTYDC1 [1]) | Km (LaTYDC1 [2])
1 | N[C@@H](Cc1ccc(O)c(O)c1)C(=O)O [L-Dopa, 3,4-dihydroxy-L-phenylalanine] | 966 ± 79 µM | –
2 | N[C@@H](Cc1ccc(O)cc1)C(=O)O [L-tyrosine] | – | 602 ± 38 µM
